Data taken from US20230107642A1 (Erasca, Inc., priority 2020, published 2023).

Biological target: T1, K-Ras G12C (Homo sapiens, UniProt P01116, G12C)
T1 construct: This protein contained 188 amino acids in total, including an N-terminal 6-Histidine tag; made in house; host or cells: E. coli BL21
Assay: CAF assay (% CAF; method in Example 7, not in this part)
Type: binding
Conditions: for % CAF @ 10 μM, 1 h: Table 4

Structure (SMILES) | % CAF @ 10 uM, 1h (10 uM compound, 1 h incubation) | % CAF @ 10 uM, 1h (10 uM, 1 h, Table 3) | other results
C=CC(=O)N1[C@H](C)CN(c2nc(=O)n3c4c(c(-c5cc(Cl)c(F)cc5F)c(C(F)(F)F)cc24)SC[C@@H](OC)C3)C[C@@H]1C [Example 539, (3S)-8-((3S,5R)-4-acryloyl-3,5-dimethylpiperazin-1-yl)-11-(5-chloro-2,4-difluorophenyl)-3-methoxy-10-(trifluoromethyl)-3,4-dihydro-2H,6H-[1,4]thiazepino[2,3,4-ij]quinazolin-6-one] | 96% |  | 
C=CC(=O)N1CCN(c2nc(=O)n3c4c(c(-c5ccc(F)cc5F)c(Cl)cc24)SC[C@@H]3CN2CCN(C3COC3)CC2)[C@@H](C)C1 [Example 355, (3S)-7-((S)-4-acryloyl-2-methylpiperazin-1-yl)-9-chloro-10-(2,4-difluorophenyl)-3-((4-(oxetan-3-yl)piperazin-1-yl)methyl)-2H-[1,4]thiazino[2,3,4-ij]quinazolin-5(3H)-one] |  |  | % CAF @ 10 μM, 1 h (1 h): 96%
C=CC(=O)N1[C@H](C)CN(c2nc(=O)n3c4c(c(-c5ccc(F)cc5F)c(Cl)cc24)SCC3)C[C@@H]1C [Example 157, 7-((3R,5S)-4-acryloyl-3,5-dimethylpiperazin-1-yl)-9-chloro-10-(2,4-difluorophenyl)-2,3-dihydro-5H-[1,4]thiazino[2,3,4-ij]quinazolin-5-one] |  | 95% | 
C=CC(=O)N1CCN(c2nc(=O)n3c4c(c(-c5ccc(F)cc5F)c(Cl)cc24)SCC3)C[C@H]1C#N [Example 77, (2S)-1-acryloyl-4-(9-chloro-10-(2,4-difluorophenyl)-5-oxo-2,3-dihydro-5H-[1,4]thiazino[2,3,4-ij]quinazolin-7-yl)piperazine-2-carbonitrile] |  | 82% | 
C=CC(=O)N1CCN(c2nc(=O)n3c4c(c(-c5cccc6cnn(C)c56)c(Cl)cc24)SCC3)[C@@H](C)C1 [Example 127, 7-((S)-4-acryloyl-2-methylpiperazin-1-yl)-9-chloro-10-(1-methyl-1H-indazol-7-yl)-2,3-dihydro-5H-[1,4]thiazino[2,3,4-ij]quinazolin-5-one] |  | 60% | 
C=CC(=O)N1CCN(c2nc(=O)n3c4c(c(-c5ccc(F)cc5F)c(Cl)cc24)[S@@+]([O-])CC3)[C@@H](C)C1 [Example 191, 7-((S)-4-acryloyl-2-methylpiperazin-1-yl)-9-chloro-10-(2,4-difluorophenyl)-2,3-dihydro-5H-[1,4]thiazino[2,3,4-ij]quinazolin-5-one 1-oxide] |  | 26.6% | 
C=CC(=O)N1C[C@H](C)N(c2nc(=O)n3c4c(c(-c5ccc(F)cc5F)c(C(F)(F)F)cc24)SC[C@@H]3COCCOC)C[C@H]1C [Example 498, (3S)-7-((2S,5R)-4-acryloyl-2,5-dimethylpiperazin-1-yl)-10-(2,4-difluorophenyl)-3-((2-methoxyethoxy)methyl)-9-(trifluoromethyl)-2H-[1,4]thiazino[2,3,4-ij]quinazolin-5(3H)-one] | 81.2% |  | 
C=CC(=O)N1[C@H](C)CN(c2nc(=O)n3c4c(c(-c5cc(Cl)c(F)cc5F)c(C(F)(F)F)cc24)SC[C@@H]3COC)C[C@@H]1C [Example 559, (3S)-7-((3S,5R)-4-acryloyl-3,5-dimethylpiperazin-1-yl)-10-(5-chloro-2,4-difluorophenyl)-3-(methoxymethyl)-9-(trifluoromethyl)-2H-[1,4]thiazino[2,3,4-ij]quinazolin-5(3H)-one] | 83.8% |  | 
C=CC(=O)N1CCN(c2nc(=O)n3c4c(c(-c5c(F)cc(F)cc5F)c(Cl)cc24)SC[C@H]3CCCN2C[C@@H]3C[C@H]2CO3)[C@@H](C)C1 [Example 339, (R)-3-(3-((1S,4S)-2-oxa-5-azabicyclo[2.2.1]heptan-5-yl)propyl)-7-((S)-4-acryloyl-2-methylpiperazin-1-yl)-9-chloro-10-(2,4,6-trifluorophenyl)-2H-[1,4]thiazino[2,3,4-ij]quinazolin-5(3H)-one] |  |  | % CAF @ 10 μM, 1 h (1 h): 96.6%
C=CC(=O)N1[C@H](C)CN(c2nc(=O)n3c4c(c(-c5cc(Cl)c(F)cc5F)c(C(F)(F)F)cc24)SC[C@@H]3CN(C)C)C[C@@H]1C [Example 587, (3S)-7-((3S,5R)-4-acryloyl-3,5-dimethylpiperazin-1-yl)-10-(5-chloro-2,4-difluorophenyl)-3-((dimethylamino)methyl)-9-(trifluoromethyl)-2H-[1,4]thiazino[2,3,4-ij]quinazolin-5(3H)-one] | 58.9% |  | 
C=CC(=O)N1CCN(c2nc(=O)n3c4c(c(-c5ccc(F)cc5F)c(C(F)(F)F)cc24)SC[C@@H]3CC2CCN(CC)CC2)[C@@H](C)C1 [Example 353, (3S)-7-((S)-4-acryloyl-2-methylpiperazin-1-yl)-10-(2,4-difluorophenyl)-3-((1-ethylpiperidin-4-yl)methyl)-9-(trifluoromethyl)-2H-[1,4]thiazino[2,3,4-ij]quinazolin-5(3H)-one] |  |  | % CAF @ 10 μM, 1 h (1 h): 97%
C=CC(=O)N1CCN(c2nc(=O)n3c4c(c(-c5ccc(F)cc5F)c(Cl)cc24)SCC3)[C@@H](CS(C)(=O)=O)C1 [Example 185, 7-((R)-4-acryloyl-2-((methylsulfonyl)methyl)piperazin-1-yl)-9-chloro-10-(2,4-difluorophenyl)-2,3-dihydro-5H-[1,4]thiazino[2,3,4-ij]quinazolin-5-one] |  | 93.3% | 
C=CC(=O)N1C2CN(c3nc(=O)n4c5c(c(-c6ccc(F)cc6F)c(C(F)(F)F)cc35)SCC4)CC1CC1(COC1)C2 [Example 417, 7-(9-acryloyl-7,9-diazaspiro[bicyclo[3.3.1]nonane-3,3′-oxetan]-7-yl)-10-(2,4-difluorophenyl)-9-(trifluoromethyl)-2,3-dihydro-5H-[1,4]thiazino[2,3,4-ij]quinazolin-5-one] | 2% |  | 

The next lines start with results.

% CAF @ 10 uM, 1h (10 uM compound, 1 h incubation) | % CAF @ 10 uM, 1h (10 uM, 1 h, Table 3) | Structure (SMILES) | other results
 | 87.2% | C=CC(=O)N1CCN(c2nc(=O)n3c4c(c(-c5ccc(F)cc5F)c(Cl)cc24)SC[C@H]3C)[C@@H](C)C1 [Example 99, (3R)-7-((S)-4-acryloyl-2-methylpiperazin-1-yl)-9-chloro-10-(2,4-difluorophenyl)-3-methyl-2H-[1,4]thiazino[2,3,4-ij]quinazolin-5(3H)-one] | % CAF @ 10 μM, 1 h (1 h): 87.2%
35% |  | C=CC(=O)N1CCN(c2nc(=O)n3c4c(c(-c5cc(Cl)c(F)cc5F)c(C(F)(F)F)cc24)SC[C@H]3COCOC)[C@@H](C)C1 [Example 470, (3R)-7-((S)-4-acryloyl-2-methylpiperazin-1-yl)-10-(5-chloro-2,4-difluorophenyl)-3-((methoxymethoxy)methyl)-9-(trifluoromethyl)-2H-[1,4]thiazino[2,3,4-ij]quinazolin-5(3H)-one] | 
0% |  | C=CC(=O)N1C[C@H](C)N(c2nc(=O)n3c4c(c(-c5cccc6cnn(C)c56)c(Cl)cc24)SC[C@@H]3CN2CCN(CC(F)F)CC2)C[C@H]1C (atropisomer, axis not shown) [Example 570, (3S,10S)-7-((2S,5R)-4-acryloyl-2,5-dimethylpiperazin-1-yl)-9-chloro-3-((4-(2,2-difluoroethyl)piperazin-1-yl)methyl)-10-(1-methyl-1H-indazol-7-yl)-2,3-dihydro-5H-[1,4]thiazino[2,3,4-ij]quinazolin-5-one] | 
 | 73% | C=CC(=O)N1CCN(c2nc(=O)n3c4c(c(-c5cc(F)cc(Cl)c5)c(Cl)cc24)SCC3)[C@@H](C)C1 [Example 73, (S)-7-(4-acryloyl-2-methylpiperazin-1-yl)-9-chloro-10-(3-chloro-5-fluorophenyl)-2,3-dihydro-5H-[1,4]thiazino[2,3,4-ij]quinazolin-5-one] | 
51.1% |  | C=CC(=O)N1CCN(c2nc(=O)n3c4c(c(-c5cc(F)c(F)cc5F)c(Cl)cc24)SC[C@@H]3CN2CCN(C3CC3)CC2)[C@@H](C)C1 [Example 520, (3S)-7-((S)-4-acryloyl-2-methylpiperazin-1-yl)-9-chloro-3-((4-cyclopropylpiperazin-1-yl)methyl)-10-(2,4,5-trifluorophenyl)-2H-[1,4]thiazino[2,3,4-ij]quinazolin-5(3H)-one] | 
97.4% |  | C=CC(=O)N1C[C@H](C)N(c2nc(=O)n3c4c(c(-c5ccc(F)cc5F)c(C(F)(F)F)cc24)SC[C@@H]3CN2CCN(C3CC3)CC2)C[C@H]1C (single isomer, unassigned) [Example 581] | 
 | 94.7% | C=CC(=O)N1CCN(c2nc(=O)n3c4c(c(-c5ccc(F)cc5F)c(Cl)cc24)SCC3)[C@@H](C)C1 (atropisomer, axis not shown) [Example 180, (R)-7-((S)-4-acryloyl-2-methylpiperazin-1-yl)-9-chloro-10-(2,4-difluorophenyl)-2,3-dihydro-5H-[1,4]thiazino[2,3,4-ij]quinazolin-5-one] | 
96% |  | C=CC(=O)N1CCN(c2nc(=O)n3c4c(c(-c5cc(Cl)c(F)cc5F)c(Cl)cc24)SC[C@H](OC)C3)[C@@H](C)C1 [Example 541, (3R)-8-((S)-4-acryloyl-2-methylpiperazin-1-yl)-10-chloro-11-(5-chloro-2,4-difluorophenyl)-3-methoxy-3,4-dihydro-2H,6H-[1,4]thiazepino[2,3,4-ij]quinazolin-6-one] | 
48.8% |  | C=CC(=O)N1C[C@H](C)N(c2nc(=O)n3c4c(c(-c5cc(Cl)c(F)cc5F)c(C(F)(F)F)cc24)SC[C@@H]3COC)C[C@H]1C (atropisomer, axis not shown) [Example 544, (3S,10S)-7-((2S,5R)-4-acryloyl-2,5-dimethylpiperazin-1-yl)-10-(5-chloro-2,4-difluorophenyl)-3-(methoxymethyl)-9-(trifluoromethyl)-2,3-dihydro-5H-[1,4]thiazino[2,3,4-ij]quinazolin-5-one] | 
59.5% |  | C=CC(=O)N1C[C@H](C)N(c2nc(=O)n3c4c(c(-c5ccc(F)cc5)c(Cl)cc24)SC[C@@H]3CN2CCN(C3CC3)CC2)C[C@H]1C [Example 517, (S)-7-((2S,5R)-4-acryloyl-2,5-dimethylpiperazin-1-yl)-9-chloro-3-((4-cyclopropylpiperazin-1-yl)methyl)-10-(4-fluorophenyl)-2H-[1,4]thiazino[2,3,4-ij]quinazolin-5(3H)-one] | 
